Data set [1] concerns CT26. Briefly: Antiproliferative activity against mouse CT26 cells harboring active Wnt/beta-catenin signal assessed as inhibition of cell proliferation by CCK8 assay. On the technique in general: Tetrazolium dyes change colour on reduction, which living cells bring about.
Data set [2] in a line: Inhibition of Wnt/beta-catenin signaling pathway in mouse CT26 cells assessed as downregulation of AXIN2 expression incubated for 24 hrs by qPCR analysis. Particulars: CT26, 24 h.
Data set [3] has as its target T1, beta-catenin-B-cell lymphoma 9 protein complex (Homo sapiens, UniProt P35222).
T1 sequence (P35222 whole entry): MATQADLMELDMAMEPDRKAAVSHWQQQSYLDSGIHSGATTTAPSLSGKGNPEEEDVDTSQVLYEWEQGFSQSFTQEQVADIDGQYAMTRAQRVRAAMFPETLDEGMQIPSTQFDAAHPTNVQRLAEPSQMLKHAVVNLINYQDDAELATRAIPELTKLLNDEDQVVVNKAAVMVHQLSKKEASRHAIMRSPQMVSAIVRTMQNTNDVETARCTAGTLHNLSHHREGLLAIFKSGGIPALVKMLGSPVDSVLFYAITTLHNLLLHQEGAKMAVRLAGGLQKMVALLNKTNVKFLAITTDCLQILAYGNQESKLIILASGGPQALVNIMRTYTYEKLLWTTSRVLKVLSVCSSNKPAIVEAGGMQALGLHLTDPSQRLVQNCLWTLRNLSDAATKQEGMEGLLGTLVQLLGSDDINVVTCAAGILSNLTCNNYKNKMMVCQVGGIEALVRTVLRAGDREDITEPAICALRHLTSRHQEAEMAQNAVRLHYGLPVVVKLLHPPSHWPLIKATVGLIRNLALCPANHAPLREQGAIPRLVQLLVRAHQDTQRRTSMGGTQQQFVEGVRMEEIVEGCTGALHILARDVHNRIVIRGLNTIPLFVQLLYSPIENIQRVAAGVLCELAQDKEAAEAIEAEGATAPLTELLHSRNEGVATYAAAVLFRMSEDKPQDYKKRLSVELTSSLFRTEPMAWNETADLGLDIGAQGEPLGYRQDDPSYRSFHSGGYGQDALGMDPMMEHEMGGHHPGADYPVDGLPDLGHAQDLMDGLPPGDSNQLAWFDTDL
T1 sequence (O00512 whole entry): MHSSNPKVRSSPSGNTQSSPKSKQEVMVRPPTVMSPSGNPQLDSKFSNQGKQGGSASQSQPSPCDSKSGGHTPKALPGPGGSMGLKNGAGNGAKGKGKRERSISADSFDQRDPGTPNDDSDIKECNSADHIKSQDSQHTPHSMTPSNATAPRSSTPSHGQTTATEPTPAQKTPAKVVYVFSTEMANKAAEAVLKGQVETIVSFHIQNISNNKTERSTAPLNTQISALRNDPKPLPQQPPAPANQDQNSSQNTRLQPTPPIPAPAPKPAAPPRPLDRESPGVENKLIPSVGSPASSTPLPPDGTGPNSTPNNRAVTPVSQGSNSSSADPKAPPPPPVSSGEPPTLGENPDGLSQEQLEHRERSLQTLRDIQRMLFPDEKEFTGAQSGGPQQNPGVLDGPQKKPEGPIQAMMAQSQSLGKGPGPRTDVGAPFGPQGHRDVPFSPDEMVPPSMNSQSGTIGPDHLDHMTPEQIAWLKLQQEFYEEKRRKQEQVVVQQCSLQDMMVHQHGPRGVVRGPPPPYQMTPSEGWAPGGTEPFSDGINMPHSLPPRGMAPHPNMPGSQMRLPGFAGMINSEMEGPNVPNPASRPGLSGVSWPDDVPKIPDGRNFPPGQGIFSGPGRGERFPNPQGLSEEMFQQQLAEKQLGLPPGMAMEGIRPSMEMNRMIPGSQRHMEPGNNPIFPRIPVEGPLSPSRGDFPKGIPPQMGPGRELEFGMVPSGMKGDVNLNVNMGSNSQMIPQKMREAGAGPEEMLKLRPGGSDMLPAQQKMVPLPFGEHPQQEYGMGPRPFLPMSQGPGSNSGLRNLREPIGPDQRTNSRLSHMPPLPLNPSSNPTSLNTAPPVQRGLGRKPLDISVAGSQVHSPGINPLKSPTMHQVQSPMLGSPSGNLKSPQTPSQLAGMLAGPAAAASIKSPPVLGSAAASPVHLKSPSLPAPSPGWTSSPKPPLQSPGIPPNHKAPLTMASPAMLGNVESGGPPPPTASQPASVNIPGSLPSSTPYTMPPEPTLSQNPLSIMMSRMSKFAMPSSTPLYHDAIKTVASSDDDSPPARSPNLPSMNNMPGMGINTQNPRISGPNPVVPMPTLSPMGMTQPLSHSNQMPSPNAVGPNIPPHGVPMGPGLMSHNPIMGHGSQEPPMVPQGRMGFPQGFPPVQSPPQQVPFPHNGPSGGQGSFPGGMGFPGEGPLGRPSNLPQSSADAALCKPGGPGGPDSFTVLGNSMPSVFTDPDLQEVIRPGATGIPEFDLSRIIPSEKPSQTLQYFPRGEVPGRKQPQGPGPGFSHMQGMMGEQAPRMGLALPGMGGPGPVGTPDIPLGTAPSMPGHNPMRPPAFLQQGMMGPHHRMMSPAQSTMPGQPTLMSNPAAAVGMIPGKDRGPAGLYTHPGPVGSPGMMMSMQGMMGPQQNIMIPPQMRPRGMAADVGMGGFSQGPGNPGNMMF
Briefly: Inhibition of full length beta-catenin (unknown origin)/FAM labeled BCL9 (350 to 375 residues) (unknown origin) protein-protein interaction by competitive FP assay. Format: protein-complex assay.

Data set [4] relates to CT26. Briefly: Antimigratory activity in mouse CT26 cells assessed as reduction in cell migration incubated for 24 hrs by transwell assay. Type of data set: functional, cell-based. Particulars: dose 5-20 µM.
Data set [5] is described as follows: Inhibition of Wnt/beta-catenin signaling transactivation in human HCT-116 cells assessed as reduction in downstream nuclear transcription ability by TCF/LEF reporter assay. For orientation: A reporter such as luciferase makes a cellular process visible.
The subject of data set [6] is CT26. Description: Antitumor activity against mouse CT26 cells implanted in mouse assessed as tumor growth inhibition at 15 mg/kg, ip administered for 7 days relative to control. Type of data set: functional. The conditions noted are these: CT26, 168 h, time 7 day, read-out: TGI.
For data set [7], the system named is CT26. Description: Induction of apoptosis in mouse CT26 cells at 20 uM incubated for 24 hrs by annexin V-FITC/PI staining based flow cytometry analysis relative to control. Format: functional.
Data set [8] is described as follows: Toxicity in mouse implanted with mouse CT26 cells assessed as reduction in body weight at 15 mg/kg, ip administered for 7 days and measured for 11 days. The conditions noted are these: in vivo, 168 h, time 7 day. Format: organism-based.
For the next data set, the system named is HCT-116. Briefly: Antiproliferative activity against human HCT-116 cells assessed as inhibition of cell proliferation by CCK8 assay.
Data set [9] concerns CT26. Briefly: Induction of apoptosis in mouse CT26 cells at 5 uM incubated for 24 hrs by annexin V-FITC/PI staining based flow cytometry analysis relative to control. Type of data set: functional.
Another data set in a line: cells. Particulars: Homo sapiens, HCT-116, 24 h.
Data set [10] concerns CT26. Briefly: Induction of apoptosis in mouse CT26 cells assessed as increase in late apoptotic cells at 5 to 20 uM incubated for 24 hrs by annexin V-FITC/PI staining based flow cytometry analysis. Type of data set: functional, cell-based. The conditions noted are these: dose 5-20 µM. In general terms: A flow cytometer gives signals particle by particle.
Data set [11] relates to CT26. Description: Antitumor activity against mouse CT26 cells implanted in mouse assessed as reduction in tumor size at 15 mg/kg, ip administered for 7 days. The conditions noted are these: time 7.0 day. Type of data set: functional, organism-based.
Data set [12] can be described thus: […] Colorectal cancer cells (unknown origin) assessed as regulation of immune microenvironment by measuring granzyme B positive cells at 5 to 10 uM incubated for 24 hrs by flow cytometry analysis (reference value: 16.2%). Also on record: scale not given: the % may be the effect or the level left. Format: functional. Particulars: dose 5-10 µM.

Each structure is given as a SMILES string. Activity calls are given as the source filed them. The rule behind the calls is not given here.

Description for cells: Inhibition of Wnt pathway in human HCT-116 cells assessed as inhibition of Auxin2 expression incubated for 24 hrs by qPCR analysis

For `COc1ccc(-c2oc3c(-c4ccc(C)cc4)c(OC)cc(OC)c3c(=O)c2OC)cc1OC`, the results for the IC50 (with CT26 [1]; in data set [2]; in data set [3]) were 11.4 µM, 1.97 µM and 5.24 µM, respectively.

On to `COc1ccc(-c2oc3c(-c4ccc(F)c(F)c4)c(OC)cc(OC)c3c(=O)c2OC)cc1OC`, for which the results for the IC50 (in the data set with CT26 [1]; in data set [2]; in data set [3]) were 32.1 µM, 12 µM and 5.78 µM, respectively.

Consider `COc1ccc(-c2oc3c(-c4ccncc4)c(OC)cc(OC)c3c(=O)c2OC)cc1OC`, for which the IC50 in the data set with CT26 [1] was found to be 14.2 µM; in data set [2], 3.1 µM; in [3] it was 2.75 µM.

In the case of `O=c1c(O)c(-c2ccc(O)c(O)c2)oc2c(-c3ccccc3)c(O)cc(O)c12`, the IC50 in the data set on CT26 [1] stood at 3.32 µM; in data set [2], 1.31 µM; in data set [3], 3.83 µM.

Consider `COC(=O)c1ccc(-c2c(O)cc(O)c3c(=O)c(O)c(-c4ccc(O)c(O)c4)oc23)cc1`, for which the IC50 in the data set with CT26 [1] worked out at 15.1 µM; in data set [2] it was 5.05 µM; in [3] it was 2.99 µM.

With `COc1ccc(-c2oc3c(-c4ccc(C(=O)O)cc4)c(OC)cc(OC)c3c(=O)c2OC)cc1OC`, the IC50 amounted to 14.1 µM with CT26 [1], 10.4 µM in data set [2] and 4.52 µM in data set [3].

For the molecule `COC(=O)c1ccc(-c2c(OC)cc(OC)c3c(=O)c(OC)c(-c4ccc(OC)c(OC)c4)oc23)cc1`, the IC50 came to 16 µM with CT26 [1], 12 µM in data set [2] and 7.64 µM in data set [3].

As to `O=c1c(O)c(-c2ccc(O)c(O)c2)oc2cc(O)cc(O)c12` [QUERCETIN], the Activity entry was “Dose-Dependent Effect” in the data set with CT26 [4], 23.89% in the data set on CT26 [7], “Non-Toxic” in data set [8] and 17.36% in the data set with CT26 [9]. Further, the IC50 in data set [5] stood at 4.87 µM; in data set [2] it was 7.7 µM; with HCT-116, 11.4 µM; in “cells”, 9.95 µM. Besides, the inhibition in vivo at 15 mg/kg with CT26 [6] stood at 43.1%.

With `O=c1c(O)c(-c2ccc(O)c(O)c2)oc2c(-c3ccc(F)c(F)c3)c(O)cc(O)c12`, the IC50 came to 7.1 µM with CT26 [1], 1.45 µM in [2] and 3.15 µM in data set [3].

As for `O=c1c(O)c(-c2ccc(O)c(O)c2)oc2c(-c3ccc(F)cc3)c(O)cc(O)c12`, the values for the IC50 (in the data set on CT26 [1]; in data set [2]; in [3]) were 3.32 µM, 0.8 µM and 2.35 µM, respectively.

Consider `COc1ccc(-c2oc3c(-c4ccc(C(F)(F)F)cc4)c(OC)cc(OC)c3c(=O)c2OC)cc1OC`, for which the IC50 amounted to 16.2 µM in the data set on CT26 [1], 9.2 µM in [2] and 8.81 µM in data set [3].

Regarding `COc1ccc(-c2oc3c(C4CC4)c(OC)cc(OC)c3c(=O)c2OC)cc1OC`, the values for the IC50 (in the data set on CT26 [1]; in [2]; in [3]) were 3.39 µM, 2.04 µM and 20 µM, respectively.

On to `COc1ccc(-c2oc3c(-c4ccccc4)c(OC)cc(OC)c3c(=O)c2OC)cc1OC`, for which the IC50 in the data set with CT26 [1] turned out to be 15.1 µM; in data set [2], 1.11 µM; in data set [3] it was 12.1 µM.

On to `Cc1ccc(-c2c(O)cc(O)c3c(=O)c(O)c(-c4ccc(O)c(O)c4)oc23)cc1`, for which the outcome in the data set with CT26 [10] and with CT26 [11] was Active. Besides, the Activity entry was “Dose-Dependent Effect” in the data set with CT26 [4]; 34.03% with CT26 [7]; “Non-Toxic” in [8]; 44.5% in data set [12]; 29.11% with CT26 [9]. Moreover, the IC50 in data set [5] turned out to be 0.76 µM; with CT26 [1], 1.69 µM; in data set [2], 0.76 µM; in the data set with HCT-116, 1.7 µM; in the data set “cells”, 4.02 µM. In addition, in the data set with CT26 [6], the inhibition in vivo at 15 mg/kg was 76%.

On to `COc1ccc(-c2c(OC)cc(OC)c3c(=O)c(OC)c(-c4ccc(OC)c(OC)c4)oc23)cc1`, for which the IC50 turned out to be 27.8 µM in the data set with CT26 [1], 1.14 µM in [2] and 17.3 µM in data set [3].

Turning to `COc1ccc(-c2oc3c(C4=CCNCC4)c(OC)cc(OC)c3c(=O)c2OC)cc1OC`, the IC50 with CT26 [1] turned out to be 12.9 µM; in data set [2], 1.06 µM; in data set [3], 8.92 µM.

`COc1ccc(-c2oc3c(-c4ccc(F)cc4)c(OC)cc(OC)c3c(=O)c2OC)cc1OC`: the IC50 in the data set with CT26 [1] came to 19.8 µM; in data set [2], 4.57 µM; in data set [3], 6.93 µM.

For the molecule `COc1ccc(-c2oc3c(Nc4ccccc4)c(OC)cc(OC)c3c(=O)c2OC)cc1OC`, the IC50 with CT26 [1] turned out to be 2.49 µM; in data set [2], 1.09 µM; in data set [3] it was 16.2 µM.

The IC50 is the point on the concentration scale where inhibition reaches its midpoint.

These data come from ChEMBL document CHEMBL5356978 (Bioorg Med Chem Lett, 2024).
